Assay results reported in patent publication US20100029724A1, “SCREENING METHOD” (Takeda Pharmaceutical Company Limited, priority 2006, published 2010).

Tests used:
[1] = molecular target: T1, human recombinant ferrochelatase (Homo sapiens, UniProt P22830); assay: Measurement of ferrochelatase activity (zinc-protoporphyrin IX production, fluorescence); type: biochemical; settings: compound 3 μM, mean±SD, n=8, control group 0.377 ± 0.010
T1 construct: attached to the N terminal of the human FeCh Mature region (55th-423rd amino acid residues); Nus-Tag (N, cleaved yes); His-Tag (N, cleaved yes); made in house; host or cells: Escherichia coli BL21 (DE3)
T1 sequence (P22830 55-423): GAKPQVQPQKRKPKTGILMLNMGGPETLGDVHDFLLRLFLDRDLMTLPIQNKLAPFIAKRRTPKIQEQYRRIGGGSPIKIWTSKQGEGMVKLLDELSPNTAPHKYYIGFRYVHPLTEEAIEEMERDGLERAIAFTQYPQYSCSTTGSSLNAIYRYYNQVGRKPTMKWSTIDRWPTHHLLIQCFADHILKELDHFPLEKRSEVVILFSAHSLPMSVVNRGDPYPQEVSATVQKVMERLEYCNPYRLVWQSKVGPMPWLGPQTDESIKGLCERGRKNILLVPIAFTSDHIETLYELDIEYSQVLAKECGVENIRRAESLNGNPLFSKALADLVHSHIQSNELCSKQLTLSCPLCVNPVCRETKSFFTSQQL
Description: Using human FeCh gene (Invitrogen) as a template, PCR was performed using the following primer 1 (SEQ ID NO: 3) and primer 2 (SEQ ID NO: 4). Pyrobest DNA polymerase (TAKARA SHUZO CO., LTD.) was used for the PCR, and extension reactions were performed under the conditions of (1) 95° C. 1 min, then (2) 30 cycles of 96° C. 15 sec, 60° C. 30 sec, 72° C. 90 sec, then (3) 72° C. for 7 min. After the reaction, the amplification product was inserted into pCR-Blunt II-TOPO (Invitrogen) and cloned. The obtained plasmid was digested with Bgl II and Xho I to recover inserted fragments. The fragments were inserted into the Bam HI/Xho I site of pET43.1a (Novagen) to give an expression vector pET43.1a-hFeCh encoding a protein with Nus-Tag and His-Tag attached to the N terminal of the human FeCh Mature region (55th-423rd amino acid residues).
The expression vector pET43.1a-hFeCh constructed in the above-mentioned A1 was introduced into Escherichia coli BL21 (DE3) Competent Cell (Stratagene) to give an expression strain. […]
The cells obtained in the above-mentioned A2 were suspended in Blue column Buffer (10 mM Tris-HCl (pH 8.1), 0.5 M NaCl, 10% Glycerol, 1% Triton X-100, 5 mM 2-Mercaptoethanol (2-ME), 250 ml) containing Protease Cocktail (Complete, EDTA-free; Roche). […] As a result of protein quantification (CBB method; Pierce), the total protein amount of about 8 mg of human FeCh was obtained. […]

[2] = test system: cytochrome c oxidase activity of high glucose-treated HepG2 cell; assay: Cytochrome c oxidase activity in high glucose treated HepG2 cell; type: cell-based, human; settings: compound 3 μM, 3 days, high glucose (4.5 g/L) HepG2, mean±SD, n=4
Description: (1) Human liver cancer cell-derived cell line HepG2 was passaged in low glucose (1 g/L) Eagle Modified Dulbecco's Medium supplemented with 10% fetal bovine serum. The cells adjusted to 3×10^5/mL using the same medium were plated on a 96 well plate and precultured overnight. The aforementioned medium was changed to high glucose (4.5 g/L) Eagle Modified Dulbecco's Medium supplemented with 5 μg/mL transferrin, compound (a) or compound (l) was added and the cell culture was continued for 3 days. The same experiment was performed without using compound (a) and compound (l) as the control group. […] (3) The DNA content was measured using PicoGreen dsDNA Quantitation Kit (Molecular Probes P-7589), and used as an index of cell number. The cytochrome c oxidase activity was determined using the Cytochrome c oxidase Assay kit (Sigma CYTOC-OX1) modified to fit a 96 well plate protocol. […] The time-course changes in the absorbance were measured by determining the absorbance at 550 nm at a delta soft kinetic mode once in 15 sec for 6 min from immediately after the start of the reaction. The cytochrome c oxidase activity was calculated as an absorbance change rate in 5 min from 1 to 6 min. […]

Wistar Fatty rats = assay: Evaluation of anti-diabetic action in Wistar Fatty rats (glycosylated hemoglobin); type: in vivo, rat; settings: male Wistar Fatty rats, mean±SD, n=5-6
Description: Lean rats in the same lot as the male Wistar Fatty rats (26 to 27-week-old; TAKEDA RABICS, lot0402) were used. Blood samples were collected from Wistar Fatty rats in the morning under non-fasting, and glycosylated hemoglobin % value (GHB %) and plasma component were measured. GHB % was measured by Tosoh automatic glycohemoglobin analyzer HLC-723 GHbV Alc2.2. The Plasma component was measured by Beckman Synchron system CX5 delta. The rats showing a GHB % value of not less than 7.5% and a high PG value were divided into 2 groups. For one group, a suspension of compound (1), obtained by suspending compound (l) in 0.5% aqueous methylcellulose solution, (dose of compound (l): 10 mg/kg body weight) was orally administered repeatedly once a day for 20 days. For the other group, 0.5% aqueous methylcellulose solution was orally administered in the same manner, and used as the control group. On the day of completion of the administration, the blood samples were collected again, and GHB % was measured. The numerical values in the Table show mean±standard deviation of n=5-6 (n is the number of rats).

ZDF rats = assay: Evaluation of anti-diabetic action in ZDF rat (blood glucose level); type: in vivo; settings: male ZDF rat at 16 weeks of age; mixed diet 0.03% compound from 8 weeks of age (dose 20.9 mg/kg body weight); mean±SD; control group 652.8±23.10
Description: Male ZDF rats (5-week-old, Charles River Japan) were reared while allowing free-feeding of both diet and water. As the feed, a standard laboratory diet (MF; Oriental Yeast Co, Tokyo, Japan) and a mixed diet (the aforementioned standard laboratory diet containing 0.03% of compound (a)) were used. After acclimation rearing for 1 week, the body weight and glycated hemoglobin were measured, and the ZDF rats were divided into 2 groups (8 rats/group) such that the measurement values became uniform at 8 weeks of age. For the control group, the aforementioned standard laboratory diet was given, and for the compound (a) administration group, the aforementioned mixed diet was given from 8 weeks of age to 19 weeks of age.
At 16 weeks of age, the food intake in 24 hr was measured. The rats were reared at 4 rats/cage, the total amount of decrease in the diet in a can set to each cage was divided by 4 and taken as the daily food intake per rat. In addition, the dose of compound (a) was calculated from the food intake and the content of compound (a) in the mixed diet.
At 16 weeks of age, moreover, the blood was drawn from the rat tail vein using heparin as an anticoagulant. The blood sample was preserved on ice, and the plasma after centrifugation was preserved at −20° C. until measurement. The blood glucose level was measured by a biochemical automatic analyzer (Beckman Coulter, Shyncron CX5Δ).

Crj: CD(SD)IGS rats = assay: Evaluation of hemoglobin increasing action; type: in vivo, rat; settings: female Crj: CD(SD)IGS rats, 600 mg/kg/day oral, 4 weeks, mean±SD
Description: (1) After acclimation rearing for 1 week, female Crj: CD(SD)IGS rats (5-week-old) were divided into 2 groups (10 rats/group). (2) For one group, a suspension of compound (a), obtained by suspending compound (a) in 0.5% aqueous methylcellulose solution, was orally administered at 10 ml/kg body weight/day (dose of compound (a): 600 mg/kg body weight/day) once a day. For the other group, 0.5% aqueous methylcellulose solution was orally administered at 10 ml/kg body weight/day in the same manner, and used as the control group. (3) After 4-week administration under free-feeding conditions, the rats were fasted for 20 hr, and the whole blood was collected from the abdominal artery into a blood collection vessel (SP-U0501EM, Sekisui Chemical), and the red blood cell count, hematocrit, hemoglobin concentration, and MCH (average red blood cell hemoglobin) of the rat blood were measured. The numerical values in the Table show mean±standard deviation.

SMILES	ferrochelatase activity [1] [Em 590 nm]	Cytochrome c oxidase activity ([2]; Table 6, control group 0.743 ± 0.043)	Glycosylated hemoglobin value, after drug administration (Wistar Fatty rats; 10 mg/kg oral once a day for 20 days, control group 7.7 ± 0.2) [%]	Glycosylated hemoglobin value, amount of change (Wistar Fatty rats; 10 mg/kg oral once a day for 20 days, control group −0.5 ± 0.2) [%]	Glycosylated hemoglobin value, before drug administration (Wistar Fatty rats; baseline before 10 mg/kg oral once a day for 20 days) [%]	Cytochrome c oxidase activity ([2]; Table 5, control group 0.649 ± 0.044) [units/μg DNA]	blood glucose level (ZDF rats) [mg/dL]	hemoglobin (Crj: CD(SD)IGS rats; control group 15.3 ± 0.4) [g/dL]	MCH (average red blood cell hemoglobin) (Crj: CD(SD)IGS rats; control group 19.6 ± 0.4) [pg]	hematocrit (Crj: CD(SD)IGS rats; control group 42.5 ± 1.1) [%]	red blood cell count (Crj: CD(SD)IGS rats; control group 777 ± 21)
Cn1ncc(/C=C/C(=O)Nc2ccc(CCc3nnco3)cc2)c1-c1ccc(F)cc1 [compound (l), (2E)-3-[5-(4-fluorophenyl)-1-methyl-1H-pyrazol-4-yl]-N-{4-[2-(1,3,4-oxadiazol-2-yl)ethyl]phenyl}acrylamide]	0.655 ± 0.009	0.990 ± 0.088 units/(μg DNA	6.9 ± 0.4	−1.3 ± 0.3	8.2 ± 0.5	–	–	–	–	–	–
CCOP(=O)(OCC)OCc1ccc(NC(=O)/C=C/c2cnn(C)c2-c2ccc(F)cc2)cc1 [compound (a), diethyl [4-({(2E)-3-[5-(4-fluorophenyl)-1-methyl-1H-pyrazol-4-yl]prop-2-enoyl}amino)benzyl]phosphate]	0.609 ± 0.008	–	–	–	–	0.757 ± 0.029	271.7 ± 36.5	16.1 ± 0.7	20.7 ± 0.5	44.7 ± 1.9	779 ± 32 ×10^4/μl
